Literature values as cited in US6680321B1, “Compounds with analgesic effect” (AstraZeneca Canada, Inc., priority 1995, dated 2004).

Experiments:
[1] = in vivo
δ receptor = δ receptor (Homo sapiens, UniProt P41143)
μ receptor = μ receptor (Homo sapiens, UniProt P35372)
μ receptor, sequence (P35372 whole entry): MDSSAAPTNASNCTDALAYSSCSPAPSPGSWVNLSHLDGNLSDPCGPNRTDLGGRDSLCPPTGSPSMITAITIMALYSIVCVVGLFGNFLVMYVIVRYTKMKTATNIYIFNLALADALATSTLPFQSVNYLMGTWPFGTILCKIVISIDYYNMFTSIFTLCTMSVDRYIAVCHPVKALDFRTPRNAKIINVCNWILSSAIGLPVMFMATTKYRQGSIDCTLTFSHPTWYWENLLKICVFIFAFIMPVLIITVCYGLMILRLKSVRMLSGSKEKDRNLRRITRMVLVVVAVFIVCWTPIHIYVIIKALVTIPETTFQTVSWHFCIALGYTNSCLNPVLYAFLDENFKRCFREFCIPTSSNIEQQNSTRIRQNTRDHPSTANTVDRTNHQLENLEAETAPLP

δ receptor, sequence (P41143 whole entry): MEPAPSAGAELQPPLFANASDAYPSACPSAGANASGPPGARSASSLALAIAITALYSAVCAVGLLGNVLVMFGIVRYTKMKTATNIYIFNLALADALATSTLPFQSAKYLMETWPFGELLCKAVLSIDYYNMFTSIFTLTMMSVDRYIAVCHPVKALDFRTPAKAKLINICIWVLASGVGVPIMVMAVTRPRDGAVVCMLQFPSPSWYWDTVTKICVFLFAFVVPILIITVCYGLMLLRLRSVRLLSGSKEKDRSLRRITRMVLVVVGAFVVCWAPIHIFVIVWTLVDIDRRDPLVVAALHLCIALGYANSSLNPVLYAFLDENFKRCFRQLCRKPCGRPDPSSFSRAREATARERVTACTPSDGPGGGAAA

Structure (SMILES): Oc1ccc2c3c1O[C@H]1c4[nH]c5ccccc5c4C[C@@]4(O)[C@@H](C2)N(CC2CC2)CC[C@]314 [naltrindole]
- analgesic activity [1]: no analgesic activity
- selectivity for the δ receptor vs μ′ receptor binding (δ receptor): < 10 fold

Structure (SMILES): C=CCN1C[C@H](C)N([C@H](c2ccc(C(=O)N(CC)CC)cc2)c2cccc(O)c2)C[C@H]1C [BW 373U86]
- analgesic activity [1]: with analgesic activity
- affinity for the μ receptor (μ receptor): significant affinity
